Source: patent US12600732B2, “Bifunctional compounds for degrading BTK via ubiquitin proteosome pathway” (NURIX THERAPEUTICS, INC., priority 2019, dated 2026)
Where two headings read alike, the source gives them in different places.

Legend:
[1] = PK data for BTK CTMs (in vivo plasma concentrations); conditions: for Vd: read-out: Volume of Distribution
Source text: The present example evaluates in vivo plasma concentrations of BTK CTMs to develop PK-PD-efficacy relationship and predict human exposure.

BTK [2] = target: BTK (Homo sapiens, UniProt Q06187); assay: Cellular BTK degradation assay (Total BTK HTRF) in TMD8 cells; type: cell-based; set-up: endogenous in cells; host or cells: TMD8; conditions: treatment time 24 h
BTK (Homo sapiens, UniProt Q06187), sequence (Q06187 whole entry): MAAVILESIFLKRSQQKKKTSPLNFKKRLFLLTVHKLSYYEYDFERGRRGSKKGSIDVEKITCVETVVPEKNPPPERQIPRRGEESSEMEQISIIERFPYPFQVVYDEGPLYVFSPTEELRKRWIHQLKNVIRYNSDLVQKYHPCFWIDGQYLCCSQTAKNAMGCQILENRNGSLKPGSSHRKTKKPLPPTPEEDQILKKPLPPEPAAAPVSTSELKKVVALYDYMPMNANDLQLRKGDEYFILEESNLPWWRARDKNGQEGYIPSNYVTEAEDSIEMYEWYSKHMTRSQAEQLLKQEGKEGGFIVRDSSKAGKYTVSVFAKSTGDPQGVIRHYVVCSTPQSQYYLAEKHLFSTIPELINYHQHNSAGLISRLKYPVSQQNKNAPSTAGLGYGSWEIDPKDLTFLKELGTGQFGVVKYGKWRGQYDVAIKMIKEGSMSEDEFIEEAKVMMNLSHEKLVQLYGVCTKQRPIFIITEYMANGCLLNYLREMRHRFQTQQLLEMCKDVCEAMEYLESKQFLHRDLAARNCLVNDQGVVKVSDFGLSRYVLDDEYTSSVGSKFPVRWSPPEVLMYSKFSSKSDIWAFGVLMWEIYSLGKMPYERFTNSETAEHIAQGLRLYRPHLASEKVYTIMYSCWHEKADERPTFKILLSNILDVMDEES
Experimental: Cellular BTK Degradation Assay
In Vitro Cellular Screening to Determine Potency as Measured by DC50 Values after Four Hour Incubation
BTK levels were determined using Cisbio Total-BTK HTRF (Homologous Time-Resolved Fluorescence) kit (63ADK064PEG) according to the manufacturer's protocol. Briefly, cells were incubated in 1× supplied lysis buffer for 30 minutes. In an opaque white low volume 96-well plate (Cisbio, 66PL96005), cell lysate was combined with two different specific BTK antibodies, one conjugated with Eu^3+-Cryptate FRET donor and one conjugated with d2 FRET acceptor. Assay controls include wells containing cell lysate with only the Eu^3+-Cryptate FRET donor antibody and wells containing both HTRF antibodies and lysis buffer without cells or control lysate provided by Cisbio. HTRF ratio was calculated as (acceptor signal at 665 nm/donor signal at 620 nm)×10^4. Background HTRF levels were determined from the control well containing the donor, but no acceptor, antibody. Background HTRF levels were subtracted from all samples. Readouts were reported as HTRF levels relative to HTRF levels of DMSO-treated cells. Four-parameter non-linear regressions were performed in GraphPad Prism 7.02 to obtain DC50 values.
Cellular BTK degradation was measured as above for four hours in TMD8 cells for two diastereomers of compound 130. DC50 and EC50 values are the concentration at which the response is halfway between the top and bottom of the fitted non-linear regression curve.
The present example evaluates whether potency of BTK CTMs shifts with longer timepoints. DC50 values are typically calculated with a 4-hour timepoint.

CRBN neo-substrates = assay: CRBN neo-substrate levels / IMiD activity in MOLT4 and TMD8 cells (FIGS. 10-12); type: cell-based; conditions: for IMiD activity: FIG. 12
Source text: FIGS. 10A and 10B provide effects of compounds 73, 72, 121, and 44, and control compounds, on neo-substrate and ITK or BTK levels after twenty-four hours in MOLT4 cells (FIG. 10A) and TMD8 cells (FIG. 10B).
FIGS. 11A and 11B provide effects of compounds 44, 72, and 149, and control compounds, on CRBN neo-substrate and ITK levels in MOLT4 cells (FIG. 11A) and TMD8 cells (FIG. 11B).
FIG. 12 provides effects of compounds 130, 149, and 44 on ITK levels and IMiD activity.

[3] = Compound plasma exposure in mouse (CD-1), daily oral dosing, same table as the cyno DRF study; type: in vivo; conditions: CD-1, mouse
[4] = test system: TMD8 BTK C481S tumor cells; assay: TMD8 BTK C481S xenograft efficacy study; type: in vivo, mouse; conditions: PO, QD
Experimental: […] Tumor growth inhibition (% TGI) were calculated on the final day of measurement using the equation [1−(T−T0/C−T0)]×100, where T and C represent the mean size of tumors in the treated (T) and control (C) groups, and T0 refers to the tumor size at randomization.
This example examines the activity of various BTK CTMs in relevant disease models, including the WT and C481S TMD8 model, which models B cell malignancies with/without inhibitor-driven BTK mutations at C481.

BTK [5] = assay: Non-human primate (cyno) DRF PD, BTK remaining in B cells; type: in vivo; conditions: blood, 24 h after previous dose
Experimental: (§1) This example evaluates potency and tolerability of BTK CTMs following multiple, consecutive days of dosing and examines potency of compounds for BTK and Aiolos degradation. The data in the table below is from a study in which animals were dosed daily with the designated oral dose. Analysis for BTK and Aiolos levels was performed twenty-four hours following the previous dose.

Aiolos = assay: Non-human primate (cyno) DRF PD, Aiolos remaining in T cells; type: in vivo; conditions: blood, 24 h after previous dose
Experimental: as §1

[6] = Monkey cynomolgus, 0.75 mg/kg IV
[7] = Rat Sprague-Dawley, 10 mg/kg PO
[8] = Rat Sprague-Dawley, 30 mg/kg PO
[9] = 30 mg/kg, 30 mg/kg PO, 1 day of dosing
[10] = 30 mg/kg, 30 mg/kg PO, 14 days of dosing
[11] = 100 mg/kg, 100 mg/kg PO, 1 day of dosing
[12] = 100 mg/kg, 100 mg/kg PO, 14 days of dosing
[13] = 300 mg/kg, 300 mg/kg PO, 1 day of dosing
[14] = 300 mg/kg, 300 mg/kg PO, 14 days of dosing
[15] = 10 mg/kg PO daily, 1 day of dosing
[16] = 10 mg/kg PO daily, 14 days of dosing
[17] = 30 mg/kg PO daily, 1 day of dosing
[18] = 30 mg/kg PO daily, 14 days of dosing
[19] = 100 mg/kg PO daily, 1 day of dosing
[20] = 100 mg/kg PO daily, 14 days of dosing

Structure (SMILES): CN1CCN([C@@H]2CCCN(c3cnc(C(N)=O)c(Nc4ccc(C5CCN(CC6CCN(c7ccc8c(=O)n(C9CCC(=O)NC9=O)ccc8c7)CC6)CC5)cc4)n3)C2)C1=O (some centres unmarked) [Compound 72]
- AUC ([1]; Mouse Balb/c, 1 mg/kg IV): 3.96 µM·h
- clearance ([1]; Mouse Balb/c, 1 mg/kg IV): 5.1 mL/min/kg
- Vd ([1]; Mouse Balb/c, 1 mg/kg IV): 0.68 L/kg
- AUC ([1]; Mouse Balb/c, 10 mg/kg PO): 2.9 µM·h
- bioavailability ([1]; Mouse Balb/c, 10 mg/kg PO): 7%
- DC50 (BTK [2]): 0.21 nM
- IMiD activity (CRBN neo-substrates): did not have IMiD activity
- effects on CRBN neo-substrate levels (CRBN neo-substrates; after twenty-four hours, TMD8 and/or MOLT4 cells, FIGS. 10A and 10B): does not effect

Structure (SMILES): CN1CCN([C@H]2CCCN(c3cnc(C(N)=O)c(Nc4ccc(C5CCN(CC6CCN(c7ccc(C(=O)NC8CCC(=O)NC8=O)nc7)CC6)CC5)cc4)n3)C2)C1=O (some centres unmarked) [Compound 130]
- AUC ([1]; Dog Beagle, 1 mg/kg IV): 0.16 µM·h
- clearance ([1]; Dog Beagle, 1 mg/kg IV): 118 mL/min/kg
- Vd ([1]; Dog Beagle, 1 mg/kg IV): 56 L/kg
- AUC ([1]; Dog Beagle, 10 mg/kg PO): 0.17 µM·h
- bioavailability ([1]; Dog Beagle, 10 mg/kg PO): 10%
- AUC ([1]; Dog Beagle, 30 mg/kg PO): 0.23 µM·h
- AUC [1, 6]: 0.17 µM·h
- clearance [1, 6]: 90.9 mL/min/kg
- Vd [1, 6]: 16 L/kg
- AUC ([1]; Monkey cynomolgus, 10 mg/kg PO): 0.028 µM·h
- bioavailability ([1]; Monkey cynomolgus, 10 mg/kg PO): 1%
- AUC ([1]; Monkey cynomolgus, 30 mg/kg PO): 0.45 µM·h
- AUC ([1]; Mouse Balb/c, 1 mg/kg IV): 3.4 µM·h
- clearance ([1]; Mouse Balb/c, 1 mg/kg IV): 6 mL/min/kg
- Vd ([1]; Mouse Balb/c, 1 mg/kg IV): 0.72 L/kg
- AUC ([1]; Mouse Balb/c, 10 mg/kg PO): 5.81 µM·h
- bioavailability ([1]; Mouse Balb/c, 10 mg/kg PO): 17%
- AUC ([1]; Mouse Balb/c, 30 mg/kg PO): 2.3 µM·h
- AUC ([1]; Mouse CD-1, 1 mg/kg IV): 1.7 µM·h
- clearance ([1]; Mouse CD-1, 1 mg/kg IV): 11.6 mL/min/kg
- Vd ([1]; Mouse CD-1, 1 mg/kg IV): 1.4 L/kg
- AUC ([1]; Mouse CD-1, 10 mg/kg PO): 5.2 µM·h
- bioavailability ([1]; Mouse CD-1, 10 mg/kg PO): 33%
- AUC ([1]; Rat Sprague-Dawley, 1 mg/kg IV): 0.18 µM·h
- clearance ([1]; Rat Sprague-Dawley, 1 mg/kg IV): 99.5 mL/min/kg
- Vd ([1]; Rat Sprague-Dawley, 1 mg/kg IV): 32 L/kg
- AUC [1, 7]: 0.69 µM·h
- bioavailability [1, 7]: 32%
- AUC [1, 8]: 1.62 µM·h
- bioavailability [1, 8]: 7%
- AUC [3, 9]: 23.2 µM·h
- Cmax [3, 9]: 2.2 µM
- AUC [3, 10]: 21.1 µM·h
- Cmax [3, 10]: 1.7 µM
- AUC [3, 11]: 51.3 µM·h
- Cmax [3, 11]: 3.8 µM
- AUC [3, 12]: 49.8 µM·h
- Cmax [3, 12]: 3.4 µM
- AUC [3, 13]: 67 µM·h
- Cmax [3, 13]: 5.1 µM
- AUC [3, 14]: 72.2 µM·h
- Cmax [3, 14]: 5.2 µM
- Tumor Growth Inhibition (relative to vehicle) ([4]; 10 mg/kg, 23 days of dosing): 58%
- Tumor Growth Inhibition (relative to vehicle) ([4]; 10 mg/kg, 24 days of dosing): 90%
- Tumor Growth Inhibition (relative to vehicle) ([4]; 30 mg/kg, 23 days of dosing): 79%
- Tumor Growth Inhibition (relative to vehicle) ([4]; 30 mg/kg, 24 days of dosing): 100%
- Tumor Growth Inhibition (relative to vehicle) ([4]; 90 mg/kg, 24 days of dosing): 100%
- % BTK Remaining in B cells (BTK [5]; [15]): 6%
- % BTK Remaining in B cells (BTK [5]; [16]): 5%
- % BTK Remaining in B cells (BTK [5]; [17]): 3%
- % BTK Remaining in B cells (BTK [5]; [18]): 5%
- % BTK Remaining in B cells (BTK [5]; [19]): 4%
- % BTK Remaining in B cells (BTK [5]; [20]): 4%
- % Aiolos Remaining in T cells (Aiolos; [15]): 102%
- % Aiolos Remaining in T cells (Aiolos; [16]): 96%
- % Aiolos Remaining in T cells (Aiolos; [17]): 98%
- % Aiolos Remaining in T cells (Aiolos; [18]): 108%
- % Aiolos Remaining in T cells (Aiolos; [19]): 106%
- % Aiolos Remaining in T cells (Aiolos; [20]): 99%
- IMiD activity (CRBN neo-substrates): did not have IMiD activity
